Source: US11452703B2, “Methods and compositions for reducing adipocyte numbers” (Peregrine Ophthalmic PTE LTD., priority 2020, dated 2022)

Assays:
[1] = system: intraconal orbital fat adipocytes; assay: 21-day retrobulbar injection into orbital fat, histology and image analysis; format: in vivo, Lewis rats (Rattus norvegicus); parameters: Area of Retrobulbar Fat complex, Percentage Increase treated vs naïve control eyes / Mean Density of Adipocytes, Percent Increase treated vs naïve control eyes / Adipocyte Cell Counts, Percentage Decrease treated vs naïve control eyes: concentration or dose not given beside the values; conditions: rat; for Adipocyte Cell Counts, Treated Eyes Mean ± SEM / Area of Retrobulbar Fat complex, Treated Eyes Mean ± SEM / Mean Density of Adipocytes, Treated Eyes Mean ± SEM: 25 μg/eye (DCA 2000 μg/eye), day 21, n = 6; for Adipocyte Cell Counts, Percentage Decrease treated vs naïve control eyes / Area of Retrobulbar Fat complex, Percentage Increase treated vs naïve control eyes / Mean Density of Adipocytes, Percent Increase treated vs naïve control eyes: day 21
Description: Free latanoprost, EggPC-latanoprost, POPC-latanoprost, and DCA were each introduced by retrobulbar injection into the orbit of the rat eye to ascertain its effect on intraconal fat deposits over a three-week period.
(§1) Twenty-four male Lewis rats (Rattus norvegicus) at 8-10 weeks of age were used in the study. Their weights at the start of the study ranged from 250-300 g.
(§2) Six rats were assigned to each of four groups at least one day prior to drug dosing using a selection designed to achieve similar group mean body weights. Animals in Groups A-D were weighed prior to injection and weekly thereafter.
(§3) Rats were anesthetized and a 30-gauge needle was used to inject the drugs into the retrobulbar space of the right orbit of each animal. The left orbit served as a contra-lateral control. All rats awoke from anesthesia without complication.
On Day 21, 3 weeks after injection, rats were euthanized by cardiac perfusion with 4% paraformaldehyde. After perfusion, each rat was decapitated and the head was placed in a 10% formalin solution for 2 days. Each orbit was carefully exenterated subperiosteally with a scalpel and placed back in 10% formalin solution for 1 day (6 orbits from 3 animals per group) and the remaining orbits were placed back in a 10% formalin solution for 2 weeks. Exenterated orbits were embedded in paraffin and cut into 5 μm sections. Sections centered around the intraconal fat and optic nerve were stained with hematoxylin-eosin for histologic examination by a trained ocular pathologist and a second observer in a blinded fashion.
Sections were examined histologically for optic nerve injury, atrophy of orbital fat, adipocyte density, and cytotoxicity evidenced by, e.g., adipocytolysis, blood vessel injury and repair, neutrophilic inflammation, lysis of locally present neutrophils, hemorrhage, lipid lake formation, and neovascularization.
The intraconal fat of the orbital sections were examined under light microscopy and images scanned for further analysis. The areas of intraconal orbital fat were cropped and the adipocytes counted using ImageJ software (Rasband W.S., US National Institutes of Health, Bethesda, Md.) to determine adipocyte density using a previously described method. See Park et al., 2011, Jpn. J. Ophthalmol. 55:22-27. The density of adipocytes in the intraconal orbital fat area was calculated and compared between groups via a 2-tailed Student t test.
Adipocyte size heterogeneity was analyzed in the cropped images of the intraconal fat light using a maximally stable extremal regions-based segmentation algorithm implemented in MATLAB (Mathworks, Natick, Mass.). A maximally stable extremal region algorithm entitled VL_FEAT was used to find extremal regions with parameters of delta=1, maximum variation=0.2, minimum diversity=0.5. Maximally stable extremal region-determined regions with sizes less than 10 pixels or eccentricity larger than 0.9 was discarded as false positives. The mean segmented adipocyte size for each image was calculated and the groups were compared using Student t test.

[2] = Intraocular pressure pre- and 3-week post retrobulbar injection; format: in vivo, Lewis rats (Rattus norvegicus); conditions: rat, pre-injection vs 3 weeks post-injection
Description: as §1, §2, §3
Intraocular pressure (TOP) measurements were taken pre- and 3-week post-injection of each eye of all 24 rats.

[3] = system: intraconal fat deposit adipocytes; assay: Short-term (7-day) adipocyte counts in intraconal fat after retrobulbar injection; format: in vivo; conditions: rat, single retrobulbar injection, 25 μg/eye (DCA 2000 μg/eye), day 7 post-injection
Protocol: Free latanoprost, EggPC-latanoprost, and POPC-latanoprost were each introduced by retrobulbar injection into the orbit of the rat eye to ascertain its effect on intraconal fat deposits. As a positive control, deoxycholic acid (DCA; KYBELLA®) was also injected. DCA has been approved by the United States Food and Drug Administration for reducing fat cells in the chin.
Six rats were injected in a single eye for each of treatment. The contralateral eye of each animal was not injected, thus serving as a negative control.
The number of adipocytes present in the intraconal fat deposit at day 7 post-injection was counted by computer analysis of histopathology images and compared to the number of adipocytes in the contralateral un-injected eye. The results are shown in FIGS. 4A-4F and in Table 2 below.

PPARγ = assay: Quantitative real-time PCR of PPARγ mRNA in adipocytes; format: cell-based; conditions: adipocytes 9 or 15 days post differentiation, vs vehicle control
Protocol: (§4) Adipose-derived mesenchymal stem cells, i.e., pre-adipocytes, were cultured and differentiated into adipocytes following established protocols. Briefly, adipose derived mesenchymal stem cells were obtained from ATCC (PCS500011™, Manassas, Va.) and cultured in Mesenchymal Stem Cell Basal Medium (ATCC® PCS500030™) with Growth Kit (ATCC® PCS500040™) at 37° C. in 5% CO2. To induce differentiation, ADMSC cultures were grown to 70% to 80% confluence and the medium replaced by adipogenic differentiation medium (StemPro® Adipogenesis Differentiation Kit; Gibco Life Technologies™, USA). The medium was changed twice weekly.
(§5) Gene expression in the treated and untreated adipocytes was examined by quantitative real-time PCR analysis. Total RNA from adipocytes was isolated using the RNAzol® RT reagent (Molecular Research Center, Inc., Cincinnati, Ohio, USA) and reverse-transcribed using the QuantiTect reverse transcription kit (Qiagen Inc., Chatsworth, Calif., USA) according to the supplier's instructions. Messenger RNA expression of adipogenesis-promoting genes C/EBPα, PPARγ, and LPL were determined by quantitative analysis of real-time PCR (RT-PCR) using FastStart Universal SYBR Green Master Mix (Roche Applied Science) in a LightCycler® 480 Real-Time PCR System (Roche Applied Science, Germany). […]

inguinal fat pad = assay: In vivo fat reduction by direct injection into inguinal fat pads; conditions: mice, single injection 100 μL containing 100 μg latanoprost, 7 days post-injection
Protocol: The ability of liposome-encapsulated latanoprost to reduce fat deposits in vivo was tested by direct injection into inguinal fat pads of mice.
Each of three animals were injected into one inguinal fat pad with 100 μL of vehicle, 100 μL containing 100 μg latanoprost, 100 μL of EggPC-latanoprost containing 100 μg latanoprost, or 100 μL of POPC-latanoprost containing 100 μg latanoprost. Seven days later, the mice were sacrificed and the weights of both the injected inguinal fat pad and the contralateral un-injected fat pad were measured.

LPL = assay: Quantitative real-time PCR of LPL mRNA in adipocytes; format: cell-based; conditions: adipocytes 9 or 15 days post differentiation, vs vehicle control
Protocol: as §4, §5

C/EBPα = assay: Quantitative real-time PCR of C/EBPα mRNA in adipocytes; format: cell-based; conditions: adipocytes 9 or 15 days post differentiation, vs vehicle control
Protocol: as §4, §5

Row | SMILES | Adipocyte Cell Counts, Treated Eyes Mean ± SEM ([1]; retrobulbar injection) | Area of Retrobulbar Fat complex, Treated Eyes Mean ± SEM ([1]; retrobulbar injection) | Mean Density of Adipocytes, Treated Eyes Mean ± SEM ([1]; retrobulbar injection) | Adipocyte Cell Counts, Percentage Decrease treated vs naïve control eyes ([1]; retrobulbar injection) | Area of Retrobulbar Fat complex, Percentage Increase treated vs naïve control eyes ([1]; retrobulbar injection) | Mean Density of Adipocytes, Percent Increase treated vs naïve control eyes ([1]; retrobulbar injection) | Intraocular pressure (IOP) in injected eyes [2] | Adipocyte cell count reduction (percent reduction in total adipocyte number in intraconal fat deposit vs contralateral un-injected eye) [3] | mRNA expression of adipogenesis-promoting gene PPARγ (PPARγ) | heterogeneity among adipocytes in the intraconal space as compared to naïve contra-lateral control orbits ([1]; orbital injection, day 21, computer-aided morphological analysis) | change in the area of the retrobulbar fat complex after injection (significance) ([1]; retrobulbar injection, day 21, quantitative image analysis) | weight reduction of injected inguinal fat pad as compared to un-injected contralateral fat pad (inguinal fat pad) | mRNA expression of adipogenesis-promoting gene LPL (LPL) | mRNA expression of adipogenesis-promoting gene C/EBPα (C/EBPα)
1 | C[C@H](CCC(=O)O)[C@H]1CC[C@H]2[C@@H]3CC[C@@H]4C[C@H](O)CC[C@]4(C)[C@H]3C[C@H](O)[C@]12C [DCA, deoxycholic acid] | 179 ± 47 | 0.167 ± 0.093 mm^2 | 7606.21 ± 754.39 cells/mm^3 | 37% | 208% | 35% | significant increase | 39.04% |  |  |  |  |  | 
2 | CC(C)OC(=O)CCC/C=C\C[C@@H]1[C@@H](CC[C@@H](O)CCc2ccccc2)[C@H](O)C[C@@H]1O [latanoprost] | 108 ± 52 | 0.131 ± 0.089 mm^2 | 8574.68 ± 1456.73 cells/mm^3 | 61% | 283% | 58% | remained stable | 56.52% | suppressed expression | more heterogeneity | significant increases | did not result in any weight reduction | suppressed expression | suppressed expression
